Experiments:
Type in all cases: in vivo
[1] = system: Ryegrass, Italian (Italian ryegrass, Lolium multiflorum); test: Test A preemergence, Ryegrass, Italian; details: Preemergence; for Plant response rating, Ryegrass, Italian: 31 g ai/ha, visual injury, 0 to 100 scale (0 no effect, 100 complete control), approx. 10 days; for Ryegrass, Italian plant response rating: 125 g ai/ha, visual injury on 0 to 100 scale (0 no effect, 100 complete control), approximately 10 days
Method in brief: (§1)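 Greenhouse pot test in a loam–sand blend; compounds delivered in a non-phytotoxic solvent carrying a surfactant, applied either as a directed spray to soil at seeding or over seedlings 2 to 10 cm high with one to two leaves.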

[2] = system: pigweed (Amaranthus retroflexus); test: Test A preemergence, pigweed; details: for Plant response rating, Pigweed: 31 g ai/ha, visual injury, 0 to 100 scale (0 no effect, 100 complete control), approx. 10 days; for Pigweed plant response rating: 125 g ai/ha, visual injury on 0 to 100 scale (0 no effect, 100 complete control), approximately 10 days
Method in brief: (§2)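 After sowing into a sand-amended loam, pots for the preemergence test were treated by spraying directly onto soil. In parallel, seedlings at the one- to two-leaf stage and 2 to 10 cm tall were treated postemergence with the identical surfactant-containing formulation.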

corn (Zea mays) = test: Test A postemergence, corn; details: Postemergence
Method in brief: as §1

[3] = system: blackgrass (Alopecurus myosuroides); test: Test A postemergence, blackgrass; details: Postemergence
Method in brief: as §1

[4] = system: Foxtail, Giant (giant foxtail, Setaria faberi); test: Test A preemergence, Foxtail, Giant; details: Preemergence; for Plant response rating, Foxtail, Giant: 31 g ai/ha, visual injury, 0 to 100 scale (0 no effect, 100 complete control), approx. 10 days; for Foxtail, Giant plant response rating: 125 g ai/ha, visual injury on 0 to 100 scale (0 no effect, 100 complete control), approximately 10 days
Method in brief: as §1

[5] = system: pigweed (Amaranthus retroflexus); test: Test A postemergence, pigweed; details: Postemergence
Method in brief: as §1

[6] = system: wheat (Triticum aestivum); test: Test A postemergence, wheat; details: Postemergence
Method in brief: as §2

[7] = system: galium (catchweed bedstraw, Galium aparine); test: Test A postemergence, galium; details: Postemergence
Method in brief: as §2

[8] = system: ragweed (common ragweed, Ambrosia artemisiifolia); test: Test A postemergence, ragweed; details: Postemergence
Method in brief: as §1

[9] = system: barnyardgrass (Echinochloa crus-galli); test: Test A preemergence, barnyardgrass; details: Preemergence; for Plant response rating, Barnyardgrass: 31 g ai/ha, visual injury, 0 to 100 scale (0 no effect, 100 complete control), approx. 10 days; for Barnyardgrass plant response rating: 125 g ai/ha, visual injury on 0 to 100 scale (0 no effect, 100 complete control), approximately 10 days
Method in brief: as §1

[10] = system: barnyardgrass (Echinochloa crus-galli); test: Test A postemergence, barnyardgrass; details: Postemergence
Method in brief: as §2

[11] = system: Foxtail, Giant (giant foxtail, Setaria faberi); test: Test A postemergence, Foxtail, Giant; details: Postemergence
Method in brief: as §1

[12] = system: ragweed (common ragweed, Ambrosia artemisiifolia); test: Test A preemergence, ragweed; details: Preemergence; for Plant response rating, Ragweed: 31 g ai/ha, visual injury, 0 to 100 scale (0 no effect, 100 complete control), approx. 10 days; for Ragweed plant response rating: 125 g ai/ha, visual injury on 0 to 100 scale (0 no effect, 100 complete control), approximately 10 days
Method in brief: as §1

kochia (Bassia scoparia) [13] = test: Test A postemergence, kochia; details: Postemergence
Method in brief: as §1

kochia (Bassia scoparia) [14] = test: Test A preemergence, kochia; details: Preemergence; for Plant response rating, Kochia: 31 g ai/ha, visual injury, 0 to 100 scale (0 no effect, 100 complete control), approx. 10 days; for Kochia plant response rating: 125 g ai/ha, visual injury on 0 to 100 scale (0 no effect, 100 complete control), approximately 10 days
Method in brief: as §1

[15] = system: Ryegrass, Italian (Italian ryegrass, Lolium multiflorum); test: Test A postemergence, Ryegrass, Italian; details: Postemergence
Method in brief: as §1

[16] = 31 g ai/ha, visual injury on 0 to 100 scale (0 no effect, 100 complete control), approx. 10 days
[17] = 125 g ai/ha, 0 to 100 scale (0 no effect, 100 complete control)

| Compound | Plant response rating, Ryegrass, Italian [1] | Ryegrass, Italian plant response rating [1] | Plant response rating, Pigweed [2] | Pigweed plant response rating [2] | Plant response rating, Corn (corn (Zea mays); [16]) | Plant response rating, Corn (corn (Zea mays); [17]) | Plant response rating, Blackgrass [3, 16] | Plant response rating, Blackgrass [3, 17] | Plant response rating, Foxtail, Giant [4] | Foxtail, Giant plant response rating [4] | Plant response rating, Pigweed [5, 16] | Plant response rating, Pigweed [5, 17] | Plant response rating, Wheat [6, 16] | Plant response rating, Wheat [6, 17] | Plant response rating, Galium [7, 16] | Plant response rating, Galium [7, 17] | Plant response rating, Ragweed [8, 16] | Plant response rating, Ragweed [8, 17] | Plant response rating, Barnyardgrass [9] | Barnyardgrass plant response rating [9] | further results |
| --- | --- | --- | --- | --- | --- | --- | --- | --- | --- | --- | --- | --- | --- | --- | --- | --- | --- | --- | --- | --- | --- |
| Cc1cc(C)c(C(=O)N2CCCC(F)C2)cc1NS(=O)(=O)C(F)(F)F (stereo not drawn) [Compound 155] | 80 | 80 | 90 | 100 | 50 | 90 | 10 | 30 | 50 | 80 | 80 | 90 | 30 | 60 | 80 | 90 | 60 | 80 | 50 | 90 | Plant response rating, Barnyardgrass [10, 16]: 90; Plant response rating, Barnyardgrass [10, 17]: 90; Plant response rating, Foxtail, Giant [11, 16]: 20; Plant response rating, Foxtail, Giant [11, 17]: 30; Plant response rating, Ragweed [12]: 90; Ragweed plant response rating [12]: 80; Plant response rating, Kochia (kochia (Bassia scoparia) [13]; [16]): 20; Plant response rating, Kochia (kochia (Bassia scoparia) [13]; [17]): 60; Plant response rating, Kochia (kochia (Bassia scoparia) [14]): 30; Kochia plant response rating (kochia (Bassia scoparia) [14]): 40; Plant response rating, Ryegrass, Italian [15, 16]: 40; Plant response rating, Ryegrass, Italian [15, 17]: 90 |
| Cc1cc(C)c(N2CC3(CCOCC3)OC2=O)cc1NS(=O)(=O)C(F)(F)F [Compound 156] | 50 | 70 | 80 | 100 | 0 | 20 | 0 | 40 | 50 | 100 | 60 | 90 | 30 | 40 | 100 | 100 | 90 | 90 | 70 | 100 | Plant response rating, Barnyardgrass [10, 16]: 90; Plant response rating, Barnyardgrass [10, 17]: 90; Plant response rating, Foxtail, Giant [11, 16]: 30; Plant response rating, Foxtail, Giant [11, 17]: 70; Plant response rating, Ragweed [12]: 60; Ragweed plant response rating [12]: 90; Plant response rating, Kochia (kochia (Bassia scoparia) [13]; [16]): 40; Plant response rating, Kochia (kochia (Bassia scoparia) [13]; [17]): 70; Plant response rating, Kochia (kochia (Bassia scoparia) [14]): 30; Kochia plant response rating (kochia (Bassia scoparia) [14]): 50; Plant response rating, Ryegrass, Italian [15, 16]: 0; Plant response rating, Ryegrass, Italian [15, 17]: 10 |
| Cc1cc(C)c(N(S(=O)(=O)C(F)(F)F)S(=O)(=O)C(F)(F)F)cc1N1CC2(CCOCC2)OC1=O [Compound 157] | 40 | 60 | 100 | 100 | 20 | 20 | 30 | 30 | 80 | 100 | 90 | 100 | 0 | 0 | 90 | 100 | 70 | 90 | 30 | 100 | Plant response rating, Barnyardgrass [10, 16]: 20; Plant response rating, Barnyardgrass [10, 17]: 60; Plant response rating, Foxtail, Giant [11, 16]: 10; Plant response rating, Foxtail, Giant [11, 17]: 30; Plant response rating, Ragweed [12]: 40; Ragweed plant response rating [12]: 90; Plant response rating, Kochia (kochia (Bassia scoparia) [13]; [16]): 10; Plant response rating, Kochia (kochia (Bassia scoparia) [13]; [17]): 70; Plant response rating, Kochia (kochia (Bassia scoparia) [14]): 50; Kochia plant response rating (kochia (Bassia scoparia) [14]): 90; Plant response rating, Ryegrass, Italian [15, 16]: 0; Plant response rating, Ryegrass, Italian [15, 17]: 30 |

Reference: US20230278972A1, “SUBSTITUTED HALOALKYL SULFONANILIDE HERBICIDES” (FMC Corporation, priority 2020, published 2023)
